Source: patent publication US7087373B2, “Methods for determining plasma free drug concentration by direct measurement of binding affinity of protease inhibitors to plasma proteins” (priority 2001, dated 2006)
Like-named read-outs stand apart in the source and are kept apart here. Values belong to the compound of their own block, whether it stands above or below them.

Tests used:
HIV [1] = conditions: cited from earlier work
[2] = tested on: AAG (human α1-acid glycoprotein); test: Isothermal titration calorimetry (ITC) of PI binding to AAG; conditions: for binding to AAG (titration profile): 80 μM PI into 12 μM, 1.45 mL of AAG; for Ka to AAG: ITC, Table 2; for Ka: binding to AAG, 37° C., 20 mM phosphate buffer, pH 7.4, average of duplicate experiments
Procedure: Briefly, the isothermal titration calorimetry (ITC) measurements are designed to obtain primarily the enthalpy of each complex formation and their stoichiometries. The heats of each reaction are determined by integration of the peaks observed. After the contribution from the heat of dilution of each injection is subtracted, the heat is plotted against the molar ratio of PIs to AAG. The binding constant (Ka), enthalpy of binding (ΔH^0), and stoichiometry (N) of the formation of complex are determined by fitting the binding isotherm against the binding equation using an independent binding model. Data analysis may be carried out with, for example, MicroCal ORIGN software, usually provided with the instrument.
Binding experiments were run using Isothermal Titration Calorimetry (ITC) to measure bound and unbound protease inhibitors.
Sample preparation: Solutions of AAG and its variants for ITC experiments were made up in 20 mM […] buffer, pH 7.4. All compounds were prepared as stock solution of 20 mM or 25 mM in DMSO and thereafter diluted to desired concentration in the same buffer. For all ITC experiments, the percentage of DMSO is below 1%.
ITC Experiments: The isothermal titration measurements of the binding of various PIs to AAG can be typically carried out at 37° C. using a VP-ITC titration calorimeter (MicroCal, Northampton, Mass.). The instrument was electrically calibrated by means of a standard electric pulse as recommended by the manufacturer. […] A 300 μL syringe was used for the titrant, mixing was effected by stirring this syringe at 300 rpm during equilibration and experiment. Typically after a preliminary 2 μL injection, 25 injections of 10 μL each were performed with a 250s interval between injections in a single titration. The reference cell of the calorimeter filled with water, acts as a thermal reference to the sample cell. […] All solutions were degassed before titrations to reduce the noise. The buffer contained 20 mM sodium phosphate, pH 7.4.
The area of each peak was integrated and corrected for the PI heat of dilution, which was estimated by a separate experiment by injecting the PI into the buffer. By fitting the titration curve with a nonlinear least-squares method, the enthalpy change ΔH^0, and the binding constant Ka of PI binding to AAG can be estimated with the assumption of an independent binding site model.
The values provided are the average of duplicate experiments. […] The ΔS^0 function was calculated from the standard thermodynamic relation ΔG^0=ΔH^0−TΔS^0.

HIV [3] = test: Antiviral assay in the absence of AAG (Table 2); assay type: cell-based; conditions: Human immunodeficiency virus 1
From the text: In table below, a data table with the binding affinity of 3 PI's to AAG (Ka), their free drug concentrations, calculated IC50s, and calculated efficacy were extracted from the ITC results and compared to IC50s from an antiviral assay in the absence of AAG.

AAG = test: Calculation of IC50 in presence of AAG, free drug concentration and efficacy from ITC Ka; parameters: species or system human; conditions: for Free drug Concentration: calculated from ITC results; for IC50: read-out: Predicted IC50 @ 1 mg/mL AAG, calculated from Ka and IC50 without AAG
From the text: The quantification of the concentration of protease inhibitor in free form maybe performed by direct measurement of binding affinity Kd using isothermal titration calorimetry; and calculating the concentration of protease inhibitor in free form using the formula:
[formula] where Pt and Lt, are total protein and drug concentrations, and Kd is the equilibrium dissociation constant obtained in step (iii).
[formula] where PL is the protein-bound concentration of PIs, L0 and P0 are the total concentration of PIs and plasma protein, Kα and n are the binding constants and number of binding sites, respectively.
The quantification of the antiviral activity or EC50 value of a protease inhibitor in the presence of at least one plasma protein may be performed by direct measurement of binding affinity Ka using isothermal titration calorimetry; and calculating the antiviral activity or EC50 value of the protease inhibitor using the formula: […]
The quantification of the in vivo efficacy of a protease inhibitor in human plasma may be performed by direct measurement of binding affinity Ka using isothermal titration calorimetry; calculating the concentration of protease inhibitor in free form using the formulas described above; and calculating the in vivo efficacy of the protease inhibitor in human plasma using the formula: […]

HIV [4] = test: Cell-based anti-HIV assay (tetrazolium-based, Pauwels et al.) in the absence of AAG and in the presence of 1 mg/mL AAG; conditions: change in experimental EC50, absence of AAG vs presence of 1 mg/mL AAG
Procedure: The values provided are the average of duplicate experiments. […] The standard free energies (ΔG^0) were obtained from the equation ΔG^0=−RT1nKa, in which the Ka is the binding constant at 37° C. The ΔS^0 function was calculated from the standard thermodynamic relation ΔG^0=ΔH^0−TΔS^0. […] Methods, 1988, 20(4), 309–21.

HIV [5] = conditions: in vivo, Fischl et al.; extensive protein binding; cited from earlier work
[6] = antiviral assay in the absence of AAG, read-out: IC50

SMILES: CC(C)[C@H](NC(=O)N(C)Cc1ccccn1)C(=O)N[C@@H](Cc1ccccc1)[C@H](O)[C@H](O)[C@H](Cc1ccccc1)NC(=O)[C@@H](NC(=O)N(C)Cc1ccccn1)C(C)C [A77003]
antiviral efficacy as the concentration of AAG was increased (HIV [1]; in vitro, Bilello et al.): decreased

SMILES: CC(C)CN(C[C@@H](O)[C@H](Cc1ccccc1)NC(=O)O[C@H]1CCOC1)S(=O)(=O)c1ccc(N)cc1 [APV, amprenavir]
binding to AAG (titration profile) [2]: binds to AAG accompanied with an exothermic heat effect

SMILES: CC(C)CN(C[C@@H](O)[C@H](Cc1ccccc1)NC(=O)OC1CO[C@H]2OCC[C@@H]12)S(=O)(=O)c1ccc(N)cc1 (some centres unmarked) [Compound number 1]
Ka to AAG [2]: 1.92E+06
IC50 (HIV [3]): 3 nM
Free drug Concentration (AAG): 1300 nM
IC50 (AAG): 74.6 nM

Ka to AAG [2]: 2.19E+06
IC50 (HIV [3]; [6]): 0.8 nM
Free drug Concentration (AAG): 1190 nM
IC50 (AAG): 22.7 nM
SMILES: CC(C)CN(C[C@@H](O)[C@H](Cc1ccccc1)NC(=O)O[C@H]1CO[C@H]2OCC[C@H]21)S(=O)(=O)c1ccc2c(c1)OCO2 [Compound number 2]

Ka to AAG [2]: 1.24E+06
IC50 (HIV [3]; [6]): 0.5 nM
Free drug Concentration (AAG): 1710 nM
IC50 (AAG): 8.25 nM
SMILES: COc1ccc(S(=O)(=O)N(CC(C)C)C[C@@H](O)[C@H](Cc2ccccc2)NC(=O)OC2CO[C@H]3OCC[C@@H]23)cc1 (some centres unmarked) [Compound number 3]

SMILES: CC(C)(C)NC(=O)[C@@H]1CN(Cc2cccnc2)CCN1C[C@@H](O)C[C@@H](Cc1ccccc1)C(=O)N[C@H]1c2ccccc2C[C@H]1O [IDV, indinavir]
binding to AAG (titration profile) [2]: does not bind to AAG
Ka [2]: No binding
Fold Inc. EC50 (HIV [4]): 1.0

Ka [2]: 5.77 ± 0.72 10^6M^−1
Fold Inc. EC50 (HIV [4]): 37.1
SMILES: Cc1cccc(C)c1OCC(=O)N[C@@H](Cc1ccccc1)[C@@H](O)C[C@H](Cc1ccccc1)NC(=O)[C@H](C(C)C)N1CCCNC1=O [LPV, lopinavir]

Ka [2]: 2.35 ± 0.42 10^6M^−1
Fold Inc. EC50 (HIV [4]): 22.9
SMILES: Cc1c(O)cccc1C(=O)N[C@@H](CSc1ccccc1)[C@H](O)CN1C[C@H]2CCCC[C@H]2C[C@H]1C(=O)NC(C)(C)C [NFV, nelfinavir]

Ka [2]: 1.55 ± 0.49 10^6M^−1
Fold Inc. EC50 (HIV [4]): 18.9
SMILES: CC(C)c1nc(CN(C)C(=O)N[C@H](C(=O)N[C@@H](Cc2ccccc2)C[C@H](O)[C@H](Cc2ccccc2)NC(=O)OCc2cncs2)C(C)C)cs1 [RTV, ritonavir]

SMILES: CC(C)CN(C[C@@H](O)[C@H](Cc1ccccc1)NC(=O)[C@H](CC(N)=O)NC(=O)c1ccc2ccccc2n1)C(=O)NC(C)(C)C [SC-52151, telinavir]
Ka [2]: 2.38 ± 0.60 10^6M^−1
clinical efficacy (HIV [5]): lack of clinical efficacy
Fold Inc. EC50 (HIV [4]): 29.2
antiretroviral activity in vitro (HIV [1]; Fischl et al.): potent

SMILES: CC(C)(C)NC(=O)[C@@H]1C[C@@H]2CCCC[C@@H]2CN1C[C@@H](O)[C@H](Cc1ccccc1)NC(=O)[C@H](CC(N)=O)NC(=O)c1ccc2ccccc2n1 [SQV, saquinavir]
Ka [2]: 0.34 ± 0.12 10^6M^−1
Fold Inc. EC50 (HIV [4]): 5.6
